Measured values taken from the NIST ThermoML archive (doi:10.1021/je800529x).
± gives the expanded uncertainty stated by the source.

Conditions: Liquid, Drop weight

O=C=O [carbon dioxide] + O
interfacial tension [mN/m]
Conditions | 2000 kPa | 4000 kPa | 6000 kPa | 8000 kPa | 12000 kPa | 17400 kPa | 27000 kPa
293.15 K | 62.4 ± 1.7 | 43.5 ± 1.3 | 34.9 ± 1 | 29.1 ± 0.8 | 25.1 ± 0.7 | 23.2 ± 0.8 | 18.9 ± 0.7
298.15 K | 62.1 ± 1.7 | 45.1 ± 2.5 | 36.2 ± 1.3 | 30.6 ± 1.6 | 26.5 ± 1 | 24.9 ± 0.8 | 21.1 ± 0.6
299.15 K | 61.8 ± 1.7 | 45.6 ± 1.3 | 36.5 ± 1.1 | 30.8 ± 1.1 | 26.9 ± 0.8 | 25 ± 1 | 21.3 ± 0.7
301.15 K | 62 ± 2 | 46.1 ± 1.4 | 37.6 ± 1.3 | 32.8 ± 1.1 | 27.4 ± 0.8 | 25.8 ± 0.8 | 22.3 ± 1.3
303.15 K | 62.1 ± 1.7 | 48.2 ± 1.5 | 39.7 ± 1.3 | 33.5 ± 1.1 | 27.7 ± 0.8 | 26.4 ± 0.8 | 25.7 ± 1.2
305.15 K | 62.5 ± 1.7 | 49.1 ± 2.8 | 40.7 ± 2.3 | 34.8 ± 1.8 | 28.6 ± 2.4 | 27.4 ± 2.6 | 26.1 ± 2.5
307.15 K | 61.5 ± 1.7 | 38.2 ± 3.3 | 31.5 ± 3.4 | 27.3 ± 2.9 | 18.5 ± 3.5 | 16.4 ± 4 | 16.1 ± 3.5
308.15 K | 62.1 ± 2.4 | 39.3 ± 1.3 | 31.9 ± 0.9 | 27.4 ± 0.8 | 18.6 ± 0.6 | 16.6 ± 0.7 | 16.3 ± 0.5
309.15 K | 64.9 ± 3.3 | 39.6 ± 6.3 | 32.1 ± 1.5 | 27.5 ± 0.8 | 19 ± 3 | 17.3 ± 1.3 | 16.6 ± 0.6
314.15 K | 65.2 ± 1.8 | 42.9 ± 1.3 | 33.2 ± 1 | 28.5 ± 0.9 | 19.9 ± 0.7 | 17.8 ± 0.7 | 16.9 ± 0.7
333.15 K | 66.6 ± 1.8 | 52.9 ± 1.5 | 43.1 ± 1.2 | 37.9 ± 1.1 | 31.2 ± 1 | 29.4 ± 0.9 | 28.8 ± 0.9
348.15 K | 66.9 ± 1.8 | 53.2 ± 1.5 | 43.6 ± 1.2 | 38.6 ± 1.1 | 34.5 ± 1 | 31.5 ± 0.9 | 29.9 ± 0.8
373.15 K | 67.7 ± 1.9 | 57.9 ± 1.6 | 47.5 ± 1.3 | 41.7 ± 1.2 | 37.6 ± 1.1 | 32.9 ± 0.9 | 32.1 ± 0.9
398.15 K | 68.1 ± 1.9 | 58.9 ± 1.6 | 50.5 ± 1.4 | 44.6 ± 1.2 | 39.6 ± 1.1 | 36.1 ± 1 | 33.2 ± 0.9
